Five molecules from PubChem BioAssay (NCI) can be followed below.

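Dose response: 5 concentrations. Exposure: 48 h. Format: 96-well plates. Endpoint: linear interpolation; highest concentration if not reached. GI50: concentration for 50% inhibition of growth. TGI is the concentration that stops growth completely.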

Among the test systems are HL-60(TB) leukemia; HCT-116 colon; NCI-H23 lung; A549 NSCLC; ACHN renal; BT-549 breast; DU-145 prostate; MCF7 breast; NCI-H226 lung; RPMI-8226 leukemia.
Assay in all cases: NCI-60 cell line screen, 48 h

With `COC1CCC(O)C(CO)O1` (centres undefined), the TGI in the test with HL-60(TB) leukemia is 87 µM; in the test with HCT-116 colon, greater than 100 µM; in the test on NCI-H23 lung, greater than 100 µM; in the test with A549 NSCLC it was greater than 100 µM; in the test on ACHN renal it was greater than 100 µM.
Take `NCC(=O)N[C@H]1c2ccsc2/C(=N/O)[C@H]1O`: the TGI in the test with BT-549 breast, in the test with HL-60(TB) leukemia, in the test on HCT-116 colon, in the test on NCI-H23 lung, in the test with DU-145 prostate and in the test with A549 NSCLC was greater than 100 µM each time. The TGI with MCF7 breast and in the test with NCI-H226 lung was greater than 100 µM in each case.
Consider `COc1ccccc1C1C(C#N)=C(N)SC(N)=C1C#N`, for which the GI50 with BT-549 breast is 55.6 µM; with HL-60(TB) leukemia, 50.3 µM; in the test with HCT-116 colon, 43.8 µM; with NCI-H23 lung it was 97 µM; in the test with DU-145 prostate, 41.3 µM; in the test with RPMI-8226 leukemia, 12.3 µM. For the same molecule, the GI50 is greater than 100 µM with A549 NSCLC, 30.6 µM in the test with MCF7 breast, 25.6 µM in the test with NCI-H226 lung and 65.1 µM in the test with ACHN renal. For the same molecule, the TGI in the test on BT-549 breast is greater than 100 µM; with HL-60(TB) leukemia it was greater than 100 µM; in the test with HCT-116 colon, greater than 100 µM; in the test on NCI-H23 lung, greater than 100 µM; with DU-145 prostate it was greater than 100 µM; in the test on RPMI-8226 leukemia, 32.9 µM. The TGI with A549 NSCLC was greater than 100 µM; in the test on MCF7 breast, greater than 100 µM; in the test on NCI-H226 lung it was 75.8 µM; in the test with ACHN renal, greater than 100 µM.
For `CCOC(=O)c1ccc(N2C(=O)/C(=C/c3ccc(N(CCC#N)CCC#N)cc3)N=C2c2cc([N+](=O)[O-])ccc2Cl)cc1`, the TGI in the test with HCT-116 colon, with NCI-H23 lung, with RPMI-8226 leukemia, in the test on A549 NSCLC, in the test on NCI-H226 lung and in the test with ACHN renal was greater than 100 µM throughout.
For `CC1OC1C(=O)P(=O)(O)O` (centres undefined), the TGI in the test with BT-549 breast, in the test with HL-60(TB) leukemia, with HCT-116 colon, with NCI-H23 lung, with DU-145 prostate and in the test on RPMI-8226 leukemia was greater than 100 µM each time. Further, the TGI in the test with A549 NSCLC, in the test with MCF7 breast, in the test with NCI-H226 lung and in the test on ACHN renal was greater than 100 µM in each case.
